Test systems include MALME-3M melanoma; UACC-257 melanoma; MDA-MB-231 breast; OVCAR-3 ovarian; SK-MEL-5 melanoma; A549 NSCLC; HOP-92 NSCLC; NCI/ADR-RES ovarian; IGROV1 ovarian; HL-60(TB) leukemia.
Experiment in all cases: inhibition of tumour cell growth, NCI panel, 48 h

Each structure is given as a SMILES string.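 Following 48 hours of exposure in 96-well plates, responses at five concentrations were used to interpolate endpoints linearly. Here, GI50 denotes the concentration required for 50% inhibition of growth. Definition used: TGI = concentration required for complete inhibition of growth.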 Where only a bound is given, the exact number is not on record here.

Consider `NC1=NC(SCc2ccccc2CCl)c2ncn(Cc3ccccc3CCl)c2N1` (stereo not given), for which the GI50 in the assay with MALME-3M melanoma is 1.44 µM; with UACC-257 melanoma it was 1.54 µM; in the assay with MDA-MB-231 breast it was 2.9 µM; in the assay with OVCAR-3 ovarian, 1.32 µM; in the assay with SK-MEL-5 melanoma, 1.71 µM; in the assay with A549 NSCLC, 2.04 µM. Besides, the values for the GI50 in the assay on HOP-92 NSCLC, with NCI/ADR-RES ovarian and in the assay with IGROV1 ovarian were 1.1 µM, 1.81 µM and 1.52 µM, respectively. The TGI with MALME-3M melanoma came to 3.2 µM; in the assay on UACC-257 melanoma, 3.07 µM; in the assay on MDA-MB-231 breast, 11.4 µM; in the assay with OVCAR-3 ovarian it was 2.99 µM; with SK-MEL-5 melanoma, 3.25 µM; with A549 NSCLC, 5.01 µM. Moreover, the figures for the TGI with HOP-92 NSCLC, in the assay on NCI/ADR-RES ovarian and in the assay with IGROV1 ovarian were 2.39 µM, 4.3 µM and 3.57 µM, respectively.

Consider `C=CC1C(CC2OC(CO)C(O)C(O)C2O)OC=C2C(=O)OCCC21O` (stereo not given), for which the GI50 in the assay with MALME-3M melanoma is 17.8 µM; in the assay on UACC-257 melanoma it was 20.4 µM; in the assay with MDA-MB-231 breast it was 40.9 µM; in the assay on OVCAR-3 ovarian, 12.4 µM; in the assay on SK-MEL-5 melanoma, 15.7 µM; in the assay with A549 NSCLC, 18.5 µM. The GI50 in the assay on HOP-92 NSCLC is 1.68 µM; with NCI/ADR-RES ovarian it was 24 µM; in the assay on IGROV1 ovarian it was 8.36 µM. Moreover, the TGI came to 51 µM in the assay with MALME-3M melanoma; 50.9 µM with UACC-257 melanoma; 99.6 µM in the assay with MDA-MB-231 breast; 27.6 µM in the assay with OVCAR-3 ovarian; 37.5 µM with SK-MEL-5 melanoma; 48.9 µM with A549 NSCLC. Also, the TGI is 9.35 µM in the assay on HOP-92 NSCLC, more than 100 µM with NCI/ADR-RES ovarian and 53.1 µM in the assay with IGROV1 ovarian.

`CN1CCN(C(=O)c2ccc(NC(=O)Nc3ccc(-c4nc(N5CCOCC5)c5cccn5n4)cc3)cc2)CC1`: the GI50 was 0.101 µM in the assay on HL-60(TB) leukemia; 0.0295 µM in the assay on MALME-3M melanoma; 0.102 µM with UACC-257 melanoma; 0.0431 µM with MDA-MB-231 breast; 0.0803 µM in the assay on SK-MEL-5 melanoma; 0.0606 µM with A549 NSCLC. For the same compound, the GI50 in the assay on HOP-92 NSCLC was 0.0193 µM; in the assay on NCI/ADR-RES ovarian, 8.06 µM; in the assay with IGROV1 ovarian, 0.0255 µM. Also, the TGI worked out at 5.21 µM in the assay on HL-60(TB) leukemia; 0.194 µM in the assay on MALME-3M melanoma; 0.576 µM in the assay with UACC-257 melanoma; 11.3 µM in the assay with MDA-MB-231 breast; 0.394 µM with SK-MEL-5 melanoma; 12.1 µM in the assay on A549 NSCLC. In addition, the values for the TGI in the assay on HOP-92 NSCLC, in the assay on NCI/ADR-RES ovarian and with IGROV1 ovarian were 0.0759 µM, more than 81.6 µM and 1.2 µM, respectively.

Consider `CCN(CC)CCCNCc1cc(-c2ccccc2)nc2cc(Cl)ccc12`, for which the GI50 in the assay with HL-60(TB) leukemia is 1.78 µM; in the assay on MALME-3M melanoma it was 1.63 µM; with UACC-257 melanoma, 2.12 µM; in the assay on MDA-MB-231 breast, 1.45 µM; in the assay with OVCAR-3 ovarian, 7.58 µM; in the assay on SK-MEL-5 melanoma, 1.57 µM. Further, the GI50 in the assay with A549 NSCLC was 7.02 µM; in the assay with HOP-92 NSCLC, 1.16 µM; with NCI/ADR-RES ovarian it was 5 µM. Besides, the TGI in the assay with HL-60(TB) leukemia worked out at 4.19 µM; with MALME-3M melanoma, 3.49 µM; with UACC-257 melanoma, 5.11 µM; in the assay with MDA-MB-231 breast it was 4.24 µM; with OVCAR-3 ovarian, 20.5 µM; in the assay on SK-MEL-5 melanoma it was 3.13 µM. Also, the TGI in the assay on A549 NSCLC worked out at 21.2 µM; in the assay on HOP-92 NSCLC, 5.02 µM; in the assay with NCI/ADR-RES ovarian it was 19.7 µM.

On to `COc1cc(OC)c2c(=O)cc(-c3ccccc3OCc3ccccc3)oc2c1OC`, for which the GI50 in the assay on HL-60(TB) leukemia is more than 100 µM; with UACC-257 melanoma it was 6.05 µM; with MDA-MB-231 breast, 5.6 µM; in the assay with OVCAR-3 ovarian, 4.15 µM; with SK-MEL-5 melanoma, 1.84 µM; in the assay with A549 NSCLC, 63.5 µM. The GI50 was 2.63 µM with HOP-92 NSCLC and 2.96 µM with NCI/ADR-RES ovarian. For the same compound, the TGI in the assay on HL-60(TB) leukemia is more than 100 µM; in the assay with UACC-257 melanoma, 82.1 µM; with MDA-MB-231 breast, 71.8 µM; with OVCAR-3 ovarian, 16.5 µM; with SK-MEL-5 melanoma it was 4.33 µM; with A549 NSCLC it was more than 100 µM. The TGI in the assay with HOP-92 NSCLC and in the assay with NCI/ADR-RES ovarian was 18.6 µM each time.

Take `COc1cc(C2c3cc4c(cc3OC(O)C2C)OCO4)cc(OC)c1OC` (stereo not given): the TGI in the assay with HL-60(TB) leukemia is 0.503 µM; in the assay with MALME-3M melanoma, 73.2 µM; with UACC-257 melanoma it was more than 100 µM; in the assay with MDA-MB-231 breast it was 17.4 µM; in the assay with OVCAR-3 ovarian, 5.25 µM; with SK-MEL-5 melanoma it was 9.98 µM. Also, the TGI in the assay with HOP-92 NSCLC came to 7.53 µM; in the assay on NCI/ADR-RES ovarian it was 0.504 µM; in the assay with IGROV1 ovarian, 51.1 µM.

As for `C=C(C)[C@@H]1CCc2c(O)c(O)c(=O)cc(C)c2C1`, the TGI in the assay with MALME-3M melanoma is 35 µM; with UACC-257 melanoma, more than 100 µM; with MDA-MB-231 breast, more than 100 µM; with SK-MEL-5 melanoma, 3.49 µM; in the assay with A549 NSCLC, more than 100 µM; in the assay with HOP-92 NSCLC, 17 µM. Further, the TGI with NCI/ADR-RES ovarian was 25.8 µM; in the assay on IGROV1 ovarian it was more than 100 µM.

Turning to `CC(C)=Cc1cc(CCC/C(C)=C/Cc2c(O)cc(C)c(C(=O)O)c2O)co1`, the TGI in the assay on UACC-257 melanoma, in the assay with MDA-MB-231 breast, with OVCAR-3 ovarian, in the assay with SK-MEL-5 melanoma, in the assay with A549 NSCLC and in the assay with HOP-92 NSCLC was more than 100 µM in each case. The TGI with NCI/ADR-RES ovarian and with IGROV1 ovarian was more than 100 µM each time.

As for `CC12OC(C(=O)C13CC3)C1C(=O)c3c(O)ccc(O)c3C(=O)C12` (stereo not given), the GI50 in the assay on MALME-3M melanoma was 13.7 µM; in the assay with UACC-257 melanoma, 13.9 µM; with MDA-MB-231 breast, 24.6 µM; in the assay with A549 NSCLC it was 17.5 µM; in the assay on HOP-92 NSCLC, 11.9 µM; in the assay on NCI/ADR-RES ovarian it was 20.1 µM. Besides, in the assay with IGROV1 ovarian, the GI50 was 13.4 µM. Further, the TGI with MALME-3M melanoma came to 30.5 µM; in the assay on UACC-257 melanoma, 29.1 µM; with MDA-MB-231 breast it was 46.6 µM; with A549 NSCLC it was 39.2 µM; with HOP-92 NSCLC it was 41 µM; with NCI/ADR-RES ovarian, 66.8 µM. The compound further registered a TGI in the assay with IGROV1 ovarian of 29.7 µM.

For `C=C(C(=O)OC)[C@@H]1CC2OC1C(=O)C(C)CCC/C(C)=C/CC[C@@]2(C)O` (stereo not given in full), the GI50 with MALME-3M melanoma is 10.9 µM; in the assay on UACC-257 melanoma it was 23.3 µM; in the assay on MDA-MB-231 breast, 28.3 µM; in the assay with OVCAR-3 ovarian it was 15.9 µM; in the assay with SK-MEL-5 melanoma it was 37 µM; in the assay on A549 NSCLC it was 20.1 µM. For the same compound, the GI50 in the assay on HOP-92 NSCLC is 23.8 µM; with NCI/ADR-RES ovarian it was 28.8 µM; in the assay with IGROV1 ovarian it was 11.3 µM. The TGI with MALME-3M melanoma is 31.1 µM; with UACC-257 melanoma, 76.3 µM; in the assay on MDA-MB-231 breast, 68 µM; in the assay on OVCAR-3 ovarian, 48.4 µM; in the assay on SK-MEL-5 melanoma, more than 100 µM; in the assay on A549 NSCLC, 46 µM. Besides, the TGI in the assay on HOP-92 NSCLC is 95.2 µM; in the assay with NCI/ADR-RES ovarian, 86.4 µM; with IGROV1 ovarian it was 25.4 µM.
